In publication PMC9120013, “Ribosome inhibition by C9ORF72-ALS/FTD-associated poly-PR and poly-GR proteins revealed by cryo-EM” (Nature Communications, 2022):
Like-named read-outs stand apart in the source and are kept apart here. Ends that are not written are not given here.

Legend:
Assay type in all cases: biochemical
[1] = test system: translation in E. coli cell lysates; assay: Nanoluciferase translation in E. coli cell lysate (NEBExpress); conditions: n=3
Experimental: E. coli cell lysates (NEBExpress, NEB) were used to investigate bacterial translation inhibition by GR20 and PR20. We monitored the translation of an in vitro transcribed mRNA encoding a Shine-Dalgarno sequence preceding the nanoluciferase (Promega) open reading frame. The mRNA was prepared by in vitro transcription of a PCR-template obtained by amplifying the nanoluciferase open reading frame from the plasmid described in reference with the following primers: T7 + SD-forward: […], based on the pet28a+ plasmid and reverse: […]. […] Then 1 μl of water or different concentrations (10-100 μM) of PR20 or GR20 or 200 μM erythromycin were added and the plate was incubated at 37 °C for 5 min inside of an Infinite m1000 pro microplate reader (Tecan). Next, the nanoluciferase mRNA was added to the final concentration of 20 ng/μl in a 10-μl reaction. Translation reactions were incubated at 37 °C for 20 min, luminescence of the samples was continuously measured by the microplate reader to record the time course of protein synthesis. Time progress curves, obtained in the experiments, were processed in MS Excel, and the rate of change of the relative light units between 100 and 200 s was measured, the mean and SEM of three experiments is reported in column graph in Supplementary Fig. 2a.

[2] = molecular target: translation of nanoluciferase mRNA in rabbit reticulocyte lysates; assay: Nanoluciferase mRNA translation in rabbit reticulocyte lysate, inhibitor preincubated 5 min before mRNA; conditions: read-out: IC50 of translation inhibition
From the text: Rabbit reticulocyte lysates (RRL, Promega) were used to investigate the inhibition of translation by DPR proteins. We independently monitored translation of two mRNAs encoding non-homologous proteins of different lengths: nanoluciferase[71] and firefly luciferase. To measure the IC50s of the translational inhibitors cycloheximide (Akros Organics), harringtonine (AbCam), GDPCP (Jena Biosciences), PR20 and GR20, we monitored the translation of nanoluciferase mRNA in nuclease-treated RRL (Promega). […] Next, 10 ng/μl (final concentration) 6xhis-Nanoluciferase mRNA flanked with the 5'- and 3'-UTR from rabbit beta-globin[48] was added and the luminescence reactions were continuously measured by an Infinite m1000 pro microplate reader (Tecan) for 15 min at 30 °C. The 1st derivative of the luminescence reactions was determined in Prism 8 (GraphPad Software, LLC) and the maximum was identified and the mean of three maximums from independent experiments for each inhibitor was taken as the rate. The rates were plotted versus inhibitors concentration, and the plots were fitted in Prism 8 (GraphPad Software, LLC) to a 3-parameter inhibition model (Y = baseline + (max-baseline)/(1 + X/IC50)) to obtain the IC50 values where the baseline was constrained to 0. This procedure was modified to separate translation initiation from translation elongation by changing the time of addition of the inhibitors to ~300 s after mRNA addition when RLUs had reached a value of ~50,000. Here, the maximum of the first derivative was taken in the 2nd or later measurement taken after inhibitor addition.
The following additional controls indicate that DPR-induced changes in fluorescence were caused by translation inhibition.

rabbit 80S ribosomes = assay: Kinetic peptidyl transfer (puromycin) assay on rabbit 80S ribosomes
From the text: To test the effects of PR20 on the mammalian peptidyl transferase, 80S ribosomes were purified from rabbit reticulocyte lysate (Green Hectares) and dissociated into 40S and 60S subunits as described in the section entitled “Cryo-EM complex of mammalian 80S ribosome with PR20”. A model leaderless mRNA fragment placing the AUG codon in the P-site and the UUC codon in the A site (CCAC AUG UUC CCCCCCCCCCCCCCCCCC), was synthesized by IDT. The 80S•mRNA•fMet-tRNA^fMet complex with PRn (where n = 10, 20, or 40) or GR20 was assembled as follows. one micrometer 60S subunit was mixed with the DPR (starting with the initial DPR concentration of 33x relative to its final concentration in the reaction) in Assembly Buffer containing 20 mM Tris-acetate (pH 7.0), 100 mM KOAc, 10 mM Mg(OAc)2, and the mixture was incubated for 5 min at 30 °C. […] 1095 nM [^35S]-fMet-tRNA^fMet and the 60S solution were added (0.5 volumes of the 40S solution), resulting in the following concentrations: 330 nM 60S, 400 nM 40S, 730 nM tRNA, 11 µM mRNA and 11x of final concentration of a DPR in the buffer (20 mM Tris-acetate (pH 7.0), 100 mM KOAc, 10 mM Mg(OAc)2). The solution was incubated for 5 min at 30 °C. The solution was diluted ten times with the same buffer, then puromycin (prepared in the same buffer) was added and time progress curves were recorded.
The kinetics of puromycin reaction on the 70S or 80S ribosomes were recorded and analyzed essentially as described. An aliquot (4.5 μl) of the complex prior to addition of puromycin was quenched in 30 μl of saturated MgSO4 in 0.1 M NaOAc to represent the zero-time point. Five microliters of 500 µM puromycin (in the same buffer as that used for the ribosomal complex) was added to 45 μl of the complex to initiate the reaction, yielding estimated final concentrations: 30 nM for the ribosome, 1 µM mRNA, 66 nM [^35S]-fMet-tRNA^fMet, 50 µM puromycin, and varying concentrations of PRn and GRn peptides, from 30 nM to 2 μM. After 6, 15, 30, 90 s, and 5, 15, 30, 60, and (for slower reactions) 180 min, 5-μl aliquots were quenched in 30 μl of saturated MgSO4 in 0.1 M NaOAc. All quenched samples were extracted with 700 μl ethyl-acetate. 600 μl of the extract were mixed with 3.5 ml of Econo-Safe scintillation cocktail (RPI), and the amount of released [^35S]-labeled dipeptide was measured for each time point using a scintillation counter (Beckman Coulter, Inc.).
All time progress curves were recorded in duplicates, using independently prepared 70S or 80S complexes. Reaction rates were calculated using single-exponential or double-exponential (80S complexes) regressions for different concentrations of PRn and GRn using GraphPad Prism 8. Hyperbola fitting in Gnuplot was used to derive apparent Ki-values.

[3] = 50% RRL, 5-min preincubation at 30 °C before nanoluciferase mRNA, maximal rate vs concentration, n = 3, mean ± SEM

Compound | concentration needed to inhibit translation in E. coli lysate [1] | IC50 ([2]; 33% RRL) | IC50 [2, 3] | effect on peptidyl transfer on rabbit 80S (rabbit 80S ribosomes; 2 µM, n=2) | concentration at which inhibition of peptidyl transfer starts (rabbit 80S ribosomes; 30 nM 80S)
N=C(N)NCCC[C@H](NC(=O)CNC(=O)[C@H](CCCNC(=N)N)NC(=O)CNC(=O)[C@H](CCCNC(=N)N)NC(=O)CNC(=O)[C@H](CCCNC(=N)N)NC(=O)CNC(=O)[C@H](CCCNC(=N)N)NC(=O)CNC(=O)[C@H](CCCNC(=N)N)NC(=O)CNC(=O)[C@H](CCCNC(=N)N)NC(=O)CNC(=O)[C@H](CCCNC(=N)N)NC(=O)CNC(=O)[C@H](CCCNC(=N)N)NC(=O)CNC(=O)[C@H](CCCNC(=N)N)NC(=O)CNC(=O)[C@H](CCCNC(=N)N)NC(=O)CNC(=O)[C@H](CCCNC(=N)N)NC(=O)CNC(=O)[C@H](CCCNC(=N)N)NC(=O)CNC(=O)[C@H](CCCNC(=N)N)NC(=O)CNC(=O)[C@H](CCCNC(=N)N)NC(=O)CNC(=O)[C@H](CCCNC(=N)N)NC(=O)CNC(=O)[C@H](CCCNC(=N)N)NC(=O)CNC(=O)[C@H](CCCNC(=N)N)NC(=O)CNC(=O)[C@H](CCCNC(=N)N)NC(=O)CNC(=O)[C@H](CCCNC(=N)N)NC(=O)CN)C(=O)O [GR20] | > 10 µM | 425 nM | 640 nM | inhibits peptidyl transfer | –
PRPRPRPRPRPRPRPRPRPRPRPRPRPRPRPRPRPRPRPR [PR20] | ≥ 5 µM | 325 nM | 840 nM | – | ~ 100 nM
